Measurements from US20080090878A1, “Pharmaceutical combinations and their use in treating gastrointestinal and abdominal viscera disorders” (priority 1999, published 2008).

System: Guinea-Pig Colon Entero-Chromaffin Cells
Test: Release of serotonin (5HT) from guinea-pig colon entero-chromaffin cells, organ bath, HPLC
Format: cell-based, guinea-pigs
Conditions: guinea-pig proximal colon
Experimental: Male guinea-pigs, 200-400 g are stunned and bled. Segments of the proximal colon are removed and suspended, as described by Trendelenburg in Arch. Exp. Path. Pharmakol., 81, 55-129 (1917), in a 20 ml organ bath. The tissue is bathed with a modified Krebs solution (NaCl 118.6; CaCl2 2.7; KCl 4.7; KH2 PO4 1.2; MgSO4 0.1; NaHCO3 25.0; and glucose 5.6 mM), maintained at 37° C. 5-HT is determined by high-performance liquid chromatography with electro-chemical detection. […] To individual organ baths the following agents are added prior to the addition of physostigmine (1 microM): 1) no addition (negative control), 2) atropine (0.2 microM) (positive control), 3) hexamethonium (100 microM) (positive control), 4) tegaserod, 5) cilansetron, 6) prucalopride, 7) A-85380, 8) fedotozine, 9) chlordiazepoxide, 10) CGP49823, 11) buproprion, 12) fluvoxamine, 13) tegaserod plus cilansetron, 14) tegaserod plus prucalopride, 15) tegaserod plus A-85380, 16)-tegaserod plus fedotozine, 17) tegaserod plus chlordiazepoxide, 18) tegaserod plus SDZ-NKT-343, 19) tegaserod plus buproprion, or 20) tegaserod plus fluvoxamine. The combination of agents results in an amplification of the reduction of physostigmine-induced serotonin outflow as compared to any of the agents alone.

`CN1[C@@H]2CC[C@H]1C[C@@H](OC(=O)C(CO)c1ccccc1)C2` (some centres unmarked) [atropine] was tested, and the “luminal outflow of 5-HT” value (0.2 microM) was “significantly reduced”.
For `C[N+](C)(C)CCCCCC[N+](C)(C)C` [hexamethonium], the “luminal outflow of 5-HT” value (100 microM) was “significantly reduced”.
